Columns and labels:
Format in all cases: in vivo
[1] = system: ducksalad (Heteranthera limosa); assay: Test B flooded paddy test; conditions: for Plant response rating, Flood, Ducksalad: 250 g ai/ha, flooded paddy test, visual rating on 0 to 100 scale (0 no effect, 100 complete control) after 13 to 15 days; for Plant response rating, Ducksalad: Flood (flooded paddy test), 13 to 15 days
Description: (§1) Plant species in the flooded paddy test consisted of rice (Oryza sativa), umbrella sedge (Cyperus difformis), ducksalad (Heteranthera limosa) and barnyardgrass (Echinochloa crus-galli) grown to the 2-leaf stage for testing. At the time of treatment, test pots were flooded with water to 3 cm above the soil surface, treated by application of test compounds directly to the paddy water, and then maintained at that water depth for the duration of the test.
(§2) Treated plants and controls were maintained in a greenhouse for 13 to 15 days, after which time all treated plants were visually evaluated and compared to controls. Plant response ratings, summarized in Table B, are based on a scale of 0 to 100 where 0 is no effect and 100 is complete control. A dash (-) response means no test result.

rice (Oryza sativa) = assay: Test B flooded paddy test; conditions: for Plant response rating, Flood, Rice: 250 g ai/ha, flooded paddy test, visual rating on 0 to 100 scale (0 no effect, 100 complete control) after 13 to 15 days; for Plant response rating, Rice: Flood (flooded paddy test), 13 to 15 days
Description: as §1, §2

[2] = system: barnyardgrass (Echinochloa crus-galli); assay: Test B flooded paddy test; conditions: for Plant response rating, Flood, Barnyardgrass: 250 g ai/ha, flooded paddy test, visual rating on 0 to 100 scale (0 no effect, 100 complete control) after 13 to 15 days; for Plant response rating, Barnyardgrass: Flood (flooded paddy test), 13 to 15 days
Description: as §1, §2

[3] = system: umbrella sedge (Cyperus difformis); assay: Test B flooded paddy test; conditions: for Plant response rating, Flood, Sedge, Umbrella: 250 g ai/ha, flooded paddy test, visual rating on 0 to 100 scale (0 no effect, 100 complete control) after 13 to 15 days; for Plant response rating, Sedge, Umbrella: Flood (flooded paddy test), 13 to 15 days
Description: as §1, §2

[4] = system: velvetleaf (Abutilon theophrasti); assay: Test A pre-/postemergence plant response
Description: (§3) Seeds of barnyardgrass (Echinochloa crus-galli), large crabgrass (Digitaria sanguinalis), giant foxtail (Setaria faberii), morningglory (Ipomoea spp.), pigweed (Amaranthus retroflexus), velvetleaf (Abutilon theophrasti), wheat (Triticum aestivum) and corn (Zea mays) were planted into a blend of loam soil and sand and treated preemergence with a directed soil spray using test chemicals formulated in a non-phytotoxic solvent mixture which included a surfactant. At the same time these species were also treated with postemergence applications of test compounds formulated in the same manner.
(§4) Plants ranged in height from two to ten cm and were in the one- to two-leaf stage for the postemergence treatment. Treated plants and untreated controls were maintained in a greenhouse for approximately ten days, after which time all treated plants were compared to untreated controls and visually evaluated for injury. Plant response ratings, summarized in Table A, are based on a 0 to 100 scale where 0 is no effect and 100 is complete control. A dash (-) response means no test result.

[5] = system: morningglory (Ipomoea spp.); assay: Test A pre-/postemergence plant response
Description: as §3, §4

[6] = system: wheat (Triticum aestivum); assay: Test A pre-/postemergence plant response
Description: as §3, §4

[7] = system: pigweed (Amaranthus retroflexus); assay: Test A pre-/postemergence plant response
Description: as §3, §4

[8] = system: large crabgrass (Digitaria sanguinalis); assay: Test A pre-/postemergence plant response
Description: as §3, §4

[9] = system: giant foxtail (Setaria faberii); assay: Test A pre-/postemergence plant response
Description: as §3, §4

[10] = system: barnyardgrass (Echinochloa crus-galli); assay: Test A pre-/postemergence plant response
Description: as §3, §4

corn (Zea mays) = assay: Test A pre-/postemergence plant response
Description: as §3, §4

[11] = 31 g ai/ha, scale of 0 to 100 where 0 is no effect and 100 is complete control
[12] = 62 g ai/ha, scale of 0 to 100 where 0 is no effect and 100 is complete control
[13] = 125 g ai/ha, scale 0 to 100, 0 is no effect, 100 is complete control
[14] = Postemergence, 125 g ai/ha, visual injury, 0 to 100 scale (0 no effect, 100 complete control), approx. ten days
[15] = Postemergence, 500 g ai/ha, 0 to 100 scale, 0 = no effect, 100 = complete control, approx. ten days
[16] = Preemergence, 125 g ai/ha, 0 to 100 scale, 0 = no effect, 100 = complete control
[17] = Preemergence, 500 g ai/ha, visual injury, 0 to 100 scale (0 no effect, 100 complete control), approx. ten days
[18] = Flood, 31 g ai/ha, scale 0 to 100 (0 no effect, 100 complete control)

SMILES: CCCCCCc1ncc(C(=O)C2=C(O)CCCC2=O)c(=O)n1-c1ccccc1 [Compound 54]
- Plant response rating, Flood, Ducksalad [1]: 40
- Plant response rating, Ducksalad [1, 11]: 0
- Plant response rating, Ducksalad [1, 12]: 0
- Plant response rating, Ducksalad [1, 13]: 30
- Plant response rating, Flood, Rice (rice (Oryza sativa)): 0
- Plant response rating, Rice (rice (Oryza sativa); [11]): 0
- Plant response rating, Rice (rice (Oryza sativa); [12]): 0
- Plant response rating, Rice (rice (Oryza sativa); [13]): 0
- Plant response rating, Flood, Barnyardgrass [2]: 0
- Plant response rating, Barnyardgrass [2, 11]: 0
- Plant response rating, Barnyardgrass [2, 12]: 0
- Plant response rating, Barnyardgrass [2, 13]: 0
- Plant response rating, Flood, Sedge, Umbrella [3]: 40
- Plant response rating, Sedge, Umbrella [3, 11]: 0
- Plant response rating, Sedge, Umbrella [3, 12]: 0
- Plant response rating, Sedge, Umbrella [3, 13]: 0
- Velvetleaf plant response rating [4, 14]: 100
- Plant response rating, Velvetleaf [4, 15]: 100
- Plant response rating, Velvetleaf [4, 16]: 60
- Plant response rating, Velvetleaf [4, 17]: 70
- Morningglory plant response rating [5, 14]: 40
- Plant response rating, Morningglory [5, 15]: 100
- Plant response rating, Morningglory [5, 16]: 0
- Plant response rating, Morningglory [5, 17]: 0
- Wheat plant response rating [6, 14]: 0
- Plant response rating, Wheat [6, 15]: 0
- Plant response rating, Wheat [6, 16]: 0
- Plant response rating, Wheat [6, 17]: 0
- Pigweed plant response rating [7, 14]: 100
- Plant response rating, Pigweed [7, 15]: 100
- Plant response rating, Pigweed [7, 16]: 80
- Plant response rating, Pigweed [7, 17]: 90
- Crabgrass, Large plant response rating [8, 14]: 40
- Plant response rating, Crabgrass, Large [8, 15]: 70
- Plant response rating, Crabgrass, Large [8, 16]: 0
- Plant response rating, Crabgrass, Large [8, 17]: 30
- Foxtail, Giant plant response rating [9, 14]: 10
- Plant response rating, Foxtail, Giant [9, 15]: 60
- Plant response rating, Foxtail, Giant [9, 16]: 0
- Plant response rating, Foxtail, Giant [9, 17]: 0
- Barnyardgrass plant response rating [10, 14]: 10
- Plant response rating, Barnyardgrass [10, 15]: 60
- Plant response rating, Barnyardgrass [10, 16]: 0
- Plant response rating, Barnyardgrass [10, 17]: 10
- Corn plant response rating (corn (Zea mays); [14]): 0
- Plant response rating, Corn (corn (Zea mays); [15]): 10
- Plant response rating, Corn (corn (Zea mays); [16]): 0
- Plant response rating, Corn (corn (Zea mays); [17]): 0

SMILES: O=C1CCCC(O)=C1C(=O)c1cnc(-c2ccccc2)n(-c2ccc(F)cc2F)c1=O [Compound 57]
- Plant response rating, Flood, Ducksalad [1]: 60
- Plant response rating, Ducksalad [1, 11]: 0
- Plant response rating, Ducksalad [1, 12]: 0
- Plant response rating, Ducksalad [1, 13]: 40
- Plant response rating, Flood, Rice (rice (Oryza sativa)): 25
- Plant response rating, Rice (rice (Oryza sativa); [11]): 0
- Plant response rating, Rice (rice (Oryza sativa); [12]): 0
- Plant response rating, Rice (rice (Oryza sativa); [13]): 15
- Plant response rating, Flood, Barnyardgrass [2]: 25
- Plant response rating, Barnyardgrass [2, 11]: 0
- Plant response rating, Barnyardgrass [2, 12]: 0
- Plant response rating, Barnyardgrass [2, 13]: 20
- Plant response rating, Flood, Sedge, Umbrella [3]: 75
- Plant response rating, Sedge, Umbrella [3, 11]: 0
- Plant response rating, Sedge, Umbrella [3, 12]: 0
- Plant response rating, Sedge, Umbrella [3, 13]: 50
- Velvetleaf plant response rating [4, 14]: 100
- Plant response rating, Velvetleaf [4, 15]: 100
- Plant response rating, Velvetleaf [4, 16]: 80
- Plant response rating, Velvetleaf [4, 17]: 100
- Morningglory plant response rating [5, 14]: 50
- Plant response rating, Morningglory [5, 15]: 60
- Plant response rating, Morningglory [5, 16]: 20
- Plant response rating, Morningglory [5, 17]: 80
- Wheat plant response rating [6, 14]: 0
- Plant response rating, Wheat [6, 15]: 10
- Plant response rating, Wheat [6, 16]: 0
- Plant response rating, Wheat [6, 17]: 0
- Pigweed plant response rating [7, 14]: 90
- Plant response rating, Pigweed [7, 15]: 100
- Plant response rating, Pigweed [7, 16]: 90
- Plant response rating, Pigweed [7, 17]: 100
- Crabgrass, Large plant response rating [8, 14]: 80
- Plant response rating, Crabgrass, Large [8, 15]: 90
- Plant response rating, Crabgrass, Large [8, 16]: 90
- Plant response rating, Crabgrass, Large [8, 17]: 100
- Foxtail, Giant plant response rating [9, 14]: 80
- Plant response rating, Foxtail, Giant [9, 15]: 90
- Plant response rating, Foxtail, Giant [9, 16]: 70
- Plant response rating, Foxtail, Giant [9, 17]: 90
- Barnyardgrass plant response rating [10, 14]: 70
- Plant response rating, Barnyardgrass [10, 15]: 90
- Plant response rating, Barnyardgrass [10, 16]: 40
- Plant response rating, Barnyardgrass [10, 17]: 90
- Corn plant response rating (corn (Zea mays); [14]): 0
- Plant response rating, Corn (corn (Zea mays); [15]): 40
- Plant response rating, Corn (corn (Zea mays); [16]): 0
- Plant response rating, Corn (corn (Zea mays); [17]): 0

SMILES: O=C1CCCC(O)=C1C(=O)c1cnc(-c2ccc(Cl)s2)n(-c2ccccc2)c1=O [Compound 65]
- Plant response rating, Flood, Ducksalad [1]: 0
- Plant response rating, Ducksalad [1, 12]: 0
- Plant response rating, Ducksalad [1, 13]: 0
- Ducksalad plant response rating [1, 18]: 0
- Plant response rating, Flood, Rice (rice (Oryza sativa)): 0
- Plant response rating, Rice (rice (Oryza sativa); [12]): 0
- Plant response rating, Rice (rice (Oryza sativa); [13]): 0
- Rice plant response rating (rice (Oryza sativa); [18]): 0
- Plant response rating, Flood, Barnyardgrass [2]: 0
- Plant response rating, Barnyardgrass [2, 12]: 0
- Plant response rating, Barnyardgrass [2, 13]: 0
- Barnyardgrass plant response rating [2, 18]: 0
- Plant response rating, Flood, Sedge, Umbrella [3]: 0
- Plant response rating, Sedge, Umbrella [3, 12]: 0
- Plant response rating, Sedge, Umbrella [3, 13]: 0
- Sedge, Umbrella plant response rating [3, 18]: 0
- Velvetleaf plant response rating [4, 14]: 90
- Plant response rating, Velvetleaf [4, 15]: 100
- Plant response rating, Velvetleaf [4, 16]: 30
- Plant response rating, Velvetleaf [4, 17]: 50
- Morningglory plant response rating [5, 14]: 50
- Plant response rating, Morningglory [5, 15]: 60
- Plant response rating, Morningglory [5, 16]: 0
- Plant response rating, Morningglory [5, 17]: 0
- Wheat plant response rating [6, 14]: 0
- Plant response rating, Wheat [6, 15]: 0
- Plant response rating, Wheat [6, 16]: 0
- Plant response rating, Wheat [6, 17]: 0
- Pigweed plant response rating [7, 14]: 20
- Plant response rating, Pigweed [7, 15]: 60
- Plant response rating, Pigweed [7, 16]: 0
- Plant response rating, Pigweed [7, 17]: 0
- Crabgrass, Large plant response rating [8, 14]: 30
- Plant response rating, Crabgrass, Large [8, 15]: 60
- Plant response rating, Crabgrass, Large [8, 16]: 10
- Plant response rating, Crabgrass, Large [8, 17]: 80
- Foxtail, Giant plant response rating [9, 14]: 10
- Plant response rating, Foxtail, Giant [9, 15]: 40
- Plant response rating, Foxtail, Giant [9, 16]: 0
- Plant response rating, Foxtail, Giant [9, 17]: 40
- Barnyardgrass plant response rating [10, 14]: 10
- Plant response rating, Barnyardgrass [10, 15]: 50
- Plant response rating, Barnyardgrass [10, 16]: 0
- Plant response rating, Barnyardgrass [10, 17]: 10
- Corn plant response rating (corn (Zea mays); [14]): 0
- Plant response rating, Corn (corn (Zea mays); [15]): 0
- Plant response rating, Corn (corn (Zea mays); [16]): 0
- Plant response rating, Corn (corn (Zea mays); [17]): 0
